The text below walks through data of patent publication US20040171632A1, “Combination chemotherapy” (priority 1998, published 2004).

In general, melting point refers to the temperature of the solid-liquid transition.

Series [1] deals with colon 26 carcinoma cells. The experiment in a line: apoptosis of colon 26 carcinoma cells in culture (phalloidin-FITC, flow cytometry). The note with it: for increase of apoptosis: FIG. 1; for incidence in apoptosis: second study, FIG. 2. It counts as cell-based, mouse. How it is done:
The data establish that the vehicle alone (DMSO) caused no effect on apoptosis (programmed cell death) of the colon 26 carcinoma cells. […] At the 30 nM concentration of paclitaxel, the combination caused about an 18% incidence in apoptosis.
The assay described above was repeated, and the results (see FIG. 2) confirmed that the combinations of this invention are useful to treat and control cancer. In this second study, DMSO did cause measurable cell death, somewhat similar to that observed with the 30 nM concentration of paclitaxel alone.
For orientation: In flow cytometry, cells or beads pass a laser one at a time.

The test system of series [2] is non-small cell lung carcinoma cells (A549). The note with it: Taxol alone at 10 nM; one set of experiments.
Description: The colon 26 carcinoma cells were originally collected from a mouse that had undergone surgery to remove the infected section of the colon, and are now readily available from Southern Research Institute (Birmingham, Ala., USA). The cells were cultured to approximately 80% confluency on Day 0 of the assay. At 72 hours after the 80% confluency was established, dimethylsulfoxide (DMSO) was added to one set of cells to act as untreated controls. Paclitaxel at concentrations of 30 nM and 100 nM was added to other sets of cells. All of the cells were incubated at 38° C. for 48 hours, at which time MEK inhibitor 2-(2-chloro-4-iodophenylamino)-N-cyclopropylmethoxy-3,4-difluorobenzamide (PD184352), at a concentration of 1.0 micromolar, was added to one set of the DMSO control cells, and to the cells containing the two concentrations of paclitaxel. All cells were again incubated for an additional 48-hour period. The cells were harvested from the growth medium, and were fixed in ethanol. The cells were then treated with FITC (fluorescein isothiocyanate)-labeled phalloidin (Sigma). Binding of phalloidin-FITC to depolymerized actin thereby serves as a measure of apoptosis. Propidium iodide was also added to the treated and control cells for the purpose of staining all cells. The extent of apoptosis of tumor cells was measured by flow cytometry analysis. […]

As to `Cc1cc(I)ccc1Nc1ccc(Cl)cc1C(=O)NCCO` [Example 31, 5-Chloro-N-(2-hydroxyethyl)-2-(4-iodo-2-methyl-phenylamino)-benzamide], the melting point is 120 to 121 °C.

As to `Cc1cc(I)ccc1Nc1cc(F)ccc1CO` [Example 49, 4-Fluoro-2-(4-iodo-2-methyl-phenylamino)-benzyl alcohol], the melting point fell in the range of 99 to 100.5 °C.

Turning to `Cc1cc(I)ccc1Nc1ccccc1-c1nnn[nH]1` [Example 208, (4-iodo-2-methyl-phenyl)-[2-(1H-tetrazol-5-yl)-phenyl]amine], the melting point was found to be 231 °C.

Consider `O=C(NOCC1CC1)c1ccc(F)c(F)c1Nc1ccc(I)cc1Cl` [PD184352, 2-(2-chloro-4-iodophenylamino)-N-cyclopropylmethoxy-3,4-difluorobenzamide], for which the increase of apoptosis result in series [1] (MEK inhibitor alone, at 30 nM as printed) is on record as “about 5%”. Besides, the incidence in apoptosis in series [1] (MEK inhibitor administered alone) is recorded as roughly 18%.

With `CC(=O)O[C@H]1C(=O)[C@@]2(C)[C@H]([C@H](OC(=O)c3ccccc3)[C@]3(O)C[C@H](OC(=O)[C@H](O)[C@@H](NC(=O)c4ccccc4)c4ccccc4)C(C)=C1C3(C)C)[C@]1(OC(C)=O)CO[C@@H]1C[C@@H]2O` [paclitaxel], the increase of apoptosis entry is listed as “about 9%” in series [1] (paclitaxel alone at 30 nM) and “about 18%” in series [1] (paclitaxel alone at 100 nM). Besides, the incidence in apoptosis in series [1] (paclitaxel at 100 nM alone) was roughly 11%. This compound gave an incidence of apoptosis in series [2] of 41%.
